Like-named read-outs stand apart in the source and are kept apart here. Values belong to the compound of their own block, whether it stands above or below them.
Tests used:
[1] = test system: oral biofilm; experiment: Ex vivo biofilm model (Calgary Biofilm Device, FDA hydrolysis); assay type: cell-based, human; settings: compared to untreated control biofilm (100%); treatment 4 times within 2 days for 2 min at 37° C.
Procedure: The experiment was developed following the method described in WO2018/033211 and Kistler et al (Kistler et al. 2015).
Up to 50 subjects were recruited for saliva donation. Participants were between 18 and 65 years old and medically healthy. Subjects who had taken antibiotics, ate antimicrobial food such as garlic within last 24 h and/or had suffer from any systemic conditions that may affected their immune or inflammatory status, were excluded from the study. Fresh morning saliva from all donors were selected and pooled. All volunteers were asked to refrain from drinking, eating, or brushing their teeth bevor donating by expectoration into sterile universal tubes.
The Calgary Biofilm Device (CBD) was originally developed for medical usage. It is commercially available as MBEC (Minimum Biofilm Eradication Concentration) Biofilm Inoculator and it is suitable as a basis for biofilm research (Kistler et al. 2015; Ceri et al. 1999). […]
Stock solutions of all test substances were prepared in dimethylsulfoxide (DMSO). […] At the end the pegs were washed again, and microbial activity was quantified photometrically by fluorescein diacetate (FDA) hydrolysis. FDA is converted into fluorescein by protease, lipase, and esterase activities in the biofilm, thus the quantification of fluorescein represents the activity of the biofilm.

[2] = test system: Prevotella intermedia (DSM 20706, ATCC25611); experiment: Minimum inhibitory concentration (MIC), DIN 58940-8 micro dilution method; assay type: cell-based; settings: for MIC: Prevotella intermedia
Procedure: (§1) MIC data were evaluated based on DIN 58940-8 micro dilution method. For the experiments three relevant bacteria occurring in the oral biofilm were selected: Streptococcus mutans (DSM 20523, ATCC 25175), Porphyromonas gingivalis (DSM 20709, ATCC33277), and Prevotella intermedia (DSM 20706, ATCC25611).
(§2) All test organisms were cultivated in suitable complex medium and under anaerobic and/or microaerophilic conditions. Every test substance was applied as technical triplicate on a 96-microtiter plate in a total volume of 300 μL per well. The inoculum was directly transferred from a glycerin stock solution or from a freshly prepared preculture. Therefore 15 mL reagent tubes were filled with specific complex growth medium and inoculated with skim milk stocks of single strains. The incubation was done at 37° C. up to 48 h until an OD620>0.1-1.0. Suspensions were controlled microscopically. In both cases the bacteria were transferred and diluted to fresh complex medium on a 96 well plate.
(§3) Test substances were either the pure materials or mixtures. The mixtures contain a cooling compound and an aroma component according to claims. Further these effective building blocks can be included in an aroma composition. Therefore, nature identical (synthetic) bases (base nature identical A/B) and/or natural basic formulations (base natural A/B) can be added.
(§4) The mixtures contained either Carvacrol (synthetic material) or the natural oregano oil with a typical Carvacrol content in the range of 50-80%.
(§5) Test substances were 100-fold solved in dimethyl sulfoxide (DMSO) and diluted directly on the 96 well plate. As […] farnesol and/or triclosan were applied in appropriate concentrations from 1 to 100 ppm. An untreated medium control was applied as growth control. The incubation of the test plates was done for 16-24 h at 37° C. At the end of the experiment, growth was determined photometrically by detecting OD620 values using Sunrise Photometer (TECAN, Austria). Mean values of triplicates were calculated and normalized with blank values (growth medium with or without test substances). The growths of treated wells were evaluated in relation to the growth control. Minimum inhibition concentrations (MIC) were defined as minimal concentration (in ppm) that causes a complete inhibition of bacterial growth.
(§6) Synergies were calculated using the following formula. The formula can be modified according to the number of components per mixture. MIC stands for minimum inhibitory concentration with the dimension of parts per million [ppm].
(§7) [formula] • MICmix=MIC value of mixture [ppm] • PA=Percentage of component A [%] • MIC A=MIC value of component A [ppm] • PB=Percentage of component B [%] • MIC B=MIC value of component B [ppm] A synergism is given if the resulting value is below 1.

[3] = test system: Porphyromonas gingivalis (DSM 20709, ATCC33277); experiment: as above; assay type: cell-based; settings: for MIC: Porphyromonas gingivalis
Procedure: as §1, §2, §3, §4, §5, §6, §7

[4] = test system: Streptococcus mutans (DSM 20523, ATCC 25175); experiment: as above; assay type: cell-based; settings: for MIC: Streptococcus mutans
Procedure: as §1, §2, §3, §4, §5, §6, §7

[5] = read-out: MIC A (MIC value of component A)
[6] = S. mutans, component alone, read-out: MIC B (MIC value of component B)

- MIC B (MIC value of component B) ([2]; P. intermedia, component alone): 250 ppm
- MIC B (MIC value of component B) ([3]; P. gingivalis, component alone): 250 ppm
- MIC B (MIC value of component B) ([4]; S. mutans, component alone): 500 ppm
Compound: CC1CCC(C(C)C)C2(C1)OCC(CO)O2 [D,L-Menthone glyceryl ketal]

- MIC ([2]; P. intermedia, component alone, read-out: MIC B (MIC value of component B)): 125 µg/mL
- MIC ([3]; P. gingivalis, component alone, read-out: MIC B (MIC value of component B)): 125 µg/mL
- MIC [4, 6]: 250 µg/mL
Compound: CC(C)[C@@H]1CC[C@@H](C)C[C@H]1OC(=O)[C@@H](C)O (stereo in doubt) [Menthyl lactate]

The next lines start with the compound.

Compound: Cc1ccc(C(C)C)cc1O [Carvacrol]
- relative biofilm activity after treatment (FIG. 1) [1]: concentration dependent oral biofilm reduction
- MIC [2, 5]: 250 µg/mL
- MIC [3, 5]: 250 µg/mL
- MIC [4, 5]: 250 µg/mL

Compound: CC(O)COC(=O)O[C@@H]1C[C@H](C)CC[C@H]1C(C)C (stereo partly shown) [Menthyl propylene glycol carbonate]
- MIC B (MIC value of component B) ([4]; S. mutans, component alone): 125 ppm

Compound: CC(C)[C@@H]1CC[C@@H](C)C[C@H]1OCC(O)CO (stereo partly drawn) [3-(−)-Menthoxy)propane-1,2-diol]
- MIC [4, 6]: 500 µg/mL

Compound: (−)-Menthyl propylene glycol carbonate
- MIC B (MIC value of component B) ([3]; P. gingivalis, component alone): 125 ppm

From patent US20250352444A1, “Antimicrobial mixtures” (Symrise AG, priority 2022, published 2025)
